Measured values from patent US11369565B2, “Amino-pyrimidine skeletal muscle modulators” (Cytokinetics, Inc., priority 2010, dated 2022).

Tested on: rabbit skeletal myofibrils (approximately 90% fast fibers)
Experiment: Activation of fast skeletal myofibrils (PUMA coupled-enzyme ATPase assay at pCa25)
Format: biochemical
Conditions: concentration at which the compound increased the enzymatic activity by 40%; calcium at pCa25; PM12 buffer pH 6.8
Method in brief: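 Detergent-washed rabbit psoas myofibrils tested at calcium giving 25% of maximal rate (pCa25). ATPase activity tracked by pyruvate kinase/lactate dehydrogenase coupling, NADH oxidation read as absorbance at 340 nm, in PM12 buffer (12 mM Pipes, 2 mM MgCl2, 1 mM DTT, pH 6.8).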

| Mean AC1.4 | Structure (SMILES) |
| --- | --- |
| B (B=1-10 uM) | Fc1cc2[nH]ncc2cc1-c1cnc(NC2(c3ncccc3F)CCC2)nc1 [[5-(6-fluoro(1H-indazol-5-yl))pyrimidin-2-yl][(3-fluoro(2-pyridyl))cyclobutyl]amine] |
| D (D=>20 uM) | COc1ccc(-c2cnc(NC[C@]3(c4ncccc4F)C[C@H](F)C3)nc2)nn1 [{[3-fluoro-1-(3-fluoro(2-pyridyl))cyclobutyl]methyl}[5-(6-methoxypyridazin-3-yl)]pyrimidin-2-yl]amine] |
| D (D=>20 uM) | CN1CCc2nc(NCC(C)(C)c3ccc(F)cc3)ncc2C1 [[2-(4-fluorophenyl)-2-methylpropyl](6-methyl (5,6,7,8-tetrahydropyridino [4,3-d]pyrimidin-2-yl))amine] |
| D (D=>20 uM) | CC(C)(Nc1ncc(-c2ncc(CN)s2)cn1)c1ncccc1Cl [{5-[5-(aminomethyl)(1,3-thiazol-2-yl)]pyrimidin-2-yl}[1-(3-chloro(2-pyridyl))-isopropyl]amine] |
| D (D=>20 uM) | CC(C)(Nc1ncc(-c2nc(CN)cs2)cn1)c1ncccc1F [{5-[4-(aminomethyl)(1,3-thiazol-2-yl)]pyrimidin-2-yl}[1-(3-fluoro(2-pyridyl))-isopropyl]amine] |
| A (A=<1 uM) | CN1CC(NC(=O)c2cccc(-c3cnc(NC[C@]4(c5ncccc5F)C[C@H](F)C4)nc3)c2)C1 [{3-[2-({[3-fluoro-1-(3-fluoro(2-pyridyl))cyclobutyl]methyl}amino)pyrimidin-5-yl]phenyl}-N-(1-methylazetidin-3-yl)carboxamide] |
| D (D=>20 uM) | CC(C)(Nc1ncc(-c2ncc(CNC(=O)c3cnc[nH]3)s2)cn1)c1ncccc1F [N-{[2-(2-{[1-(3-fluoro(2-pyridyl))-isopropyl]amino}pyrimidin-5-yl)(1,3-thiazol-5-yl)]methyl}imidazol-5-ylcarboxamide] |
| A (A=<1 uM) | CNC(=O)c1ccc(O)c(-c2cnc(NC[C@]3(c4ncccc4F)C[C@H](F)C3)nc2)c1 [{3-[2-({[3-fluoro-1-(3-fluoro(2-pyridyl))cyclobutyl]methyl}amino)pyrimidin-5-yl]-4-hydroxyphenyl}-N-methylcarboxamide] |
| B (B=1-10 uM) | O=C(NC1CC(O)C1)c1cccc(-c2cnc(NC[C@]3(c4ncccc4F)C[C@H](F)C3)nc2)c1 (stereo partly drawn) [{3-[2-(([3-fluoro-1-(3-fluoro(2-pyridyl))cyclobutyl]methyl}amino)pyrimidin-5-yl]phenyl}-N-(3-hydroxycyclobutyl)carboxamide] |
| C (C=10-20 uM) | Fc1cccnc1C1(CNc2ncc(-c3ncc[nH]3)cn2)CCC1 [{[(3-fluoro(2-pyridyl))cyclobutyl]methyl}(5-imidazol-2-ylpyrimidin-2-yl)amine] |
| A (A=<1 uM) | CC(C)(Nc1ncc(-c2ccc3[nH]nc(N)c3c2)cn1)c1ncccc1F [[5-(3-amino(1H-indazol-5-yl))pyrimidin-2-yl][1-(3-fluoro(2-pyridyl))-isopropyl]amine] |
| D (D=>20 uM) | COC(=O)c1cnc(NCC(C)(C)c2ccc(F)cc2)nc1 [methyl 2-{[2-(4-fluorophenyl)-2-methylpropyl]amino}pyrimidine-5-carboxylate] |
| D (D=>20 uM) | O=C(Nc1ccccc1)c1ccnc(NCC2(c3ncccc3F)CCC2)n1 [[2-({[(3-fluoro(2-pyridyl))cyclobutyl]methyl}amino)pyrimidin-4-yl]-N-benzamide] |
| A (A=<1 uM) | CS(=O)(=O)NC(=O)c1cccc(-c2cnc(NCC3(c4ncccc4F)CC(F)C3)nc2)c1 (stereo not drawn) [{3-[2-({[3-fluoro-1-(3-fluoro(2-pyridyl))cyclobutyl]methyl}amino)pyrimidin-5-yl]phenyl}-N-(methylsulfonyl)carboxamide] |
| D (D=>20 uM) | Clc1cccnc1C1(CNc2ncccn2)CCC1 [{[(3-chloro(2-pyridyl))cyclobutyl]methyl}pyrimidin-2-ylamine] |
| D (D=>20 uM) | COc1ncc(-c2cnc(NC[C@]3(c4ncccc4F)C[C@H](F)C3)nc2)c(OC)n1 [[5-(2,4-dimethoxypyrimidin-5-yl)pyrimidin-2-yl]{[3-fluoro-1-(3-fluoro(2-pyridyl))cyclobutyl]methyl}amine] |

The remaining lines, values behind:

| Structure (SMILES) | Mean AC1.4 |
| --- | --- |
| CC(C)(Nc1ncc(-c2ncc(CNC(=O)[C@H]3CCCN3)s2)cn1)c1ncccc1F [((2R)pyrrolidin1-2-yl)-N-{[2-(2-{[1-(3-fluoro(2-pyridyl))-isopropyl]amino}pyrimidin-5-yl)(1,3-thiazol-5-yl)]methyl}carboxamide] | D (D=>20 uM) |
| CS(=O)(=O)NCc1cnc(-c2cnc(NCC3(c4ncccc4F)CCC3)nc2)s1 [({2-[2-({[(3-fluoro(2-pyridyl))cyclobutyl]methyl}amino)pyrimidin-5-yl](1,3-thiazol-5-yl)}methyl)(methylsulfonyl)amine] | B (B=1-10 uM) |
| Cc1nc(NC[C@]2(c3ncccc3F)C[C@H](F)C2)ncc1-c1cccc(C(N)=O)c1 [3-[2-({[3-fluoro-1-(3-fluoro(2-pyridyl))cyclobutyl]methyl}amino)-4-methylpyrimidin-5-yl]benzamide] | B (B=1-10 uM) |
| CC(C)[C@@H](Nc1ncc(-c2ncc(C(N)=O)s2)cn1)c1ncccc1Cl [2-(2-{[(1R)-1-(3-chloro(2-pyridyl))-2-methylpropyl]amino}pyrimidin-5-yl)-1,3-thazole-5-carboxamide] | D (D=>20 uM) |
| O=C(O)c1ccc(O)c(-c2cnc(NC[C@]3(c4ncccc4F)C[C@H](F)C3)nc2)c1 [3-[2-({[3-fluoro-1-(3-fluoro(2-pyridyl))cyclobutyl]methyl}amino)pyrimidin-5-yl]-4-hydroxybenzoic acid] | A (A=<1 uM) |
| CC(C)(Nc1ncc(-n2cc(C(N)=O)cn2)cn1)c1ncccc1Cl [1-(2-{[1-(3-chloro(2-pyridyl))-isopropyl]amino}pyrimidin-5-yl)pyrazole-4-carboxamide] | B (B=1-10 uM) |
| CC(C)(Nc1ncc(-c2nc(C(=O)O)cs2)cn1)c1ncccc1Cl [2-(2-{[1-(3-chloro(2-pyridyl))-isopropyl]amino}pyrimidin-5-yl)-1,3-thiazole-4-carboxylic acid] | D (D=>20 uM) |
| CC(C)(Nc1ncc(-c2csc(C(N)=O)n2)cn1)c1ncccc1Cl [4-(2-{[1-(3-chloro(2-pyridyl))-isopropyl]amino}pyrimidin-5-yl)-1,3-thiazole-2-carboxamide] | C (C=10-20 uM) |
| CC(C)(Nc1ncc(-c2ncc(C(N)=O)s2)cn1)c1cccc(OC(F)F)n1 [2-[2-({1-[6-(difluoromethoxy)(2-pyridyl)]-isopropyl}amino)pyrimidin-5-yl]-1,3-thiazole-5-carboxamide] | A (A=<1 uM) |
| CC(C)(Nc1ncc(-c2ncc(C(=O)O)o2)cn1)c1ncccc1Cl [2-(2-{[1-(3-chloro(2-pyridyl))-isopropyl]amino}pyrimidin-5-yl)-1,3-oxazole-5-carboxylic acid] | D (D=>20 uM) |
| NC(=O)c1ccnc(-c2cnc(NC[C@]3(c4ncccc4F)C[C@H](F)C3)nc2)c1 [2-[2-({[3-fluoro-1-(3-fluoro(2-pyridyl))cyclobutyl]methyl}amino)pyrimidin-5-yl]pyridine-4-carboxamide] | B (B=1-10 uM) |
| NC(=O)c1cc(-c2cnc(NC[C@]3(c4ncccc4F)C[C@H](F)C3)nc2)ccc1O [5-[2-({[3-fluoro-1-(3-fluoro(2-pyridyl))cyclobutyl]methyl)amino)pyrimidin-5-yl]-2-hydroxybenzamide] | A (A=<1 uM) |
| CC(C)(Nc1ncc(-c2cn3cc(C(N)=O)ccc3n2)cn1)c1ncccc1Cl [2-(2-{[1-(3-chloro(2-pyridyl))-isopropyl]amino}pyrimidin-5-yl)-4-hydroimidazo[1,2-a]pyridine-6-carboxamide] | C (C=10-20 uM) |
| O=C(O)c1cnn(-c2cnc(NCC3(c4ncccc4F)CCC3)nc2)c1 [1-[2-({[(3-fluoro-2-pyridyl)cyclobutyl]methyl}amino)pyrimidin-5-yl]pyrazole-4-carboxylic acid] | D (D=>20 uM) |
| Nc1ccnn1C(=O)c1cnc(NCC2(c3ncccc3F)CCC2)nc1 [5-aminopyrazolyl 2-({[(3-fluoro(2-pyridyl))cyclobutyl]methyl}amino) pyrimidin-5-yl ketone] | C (C=10-20 uM) |
| CCNC(=O)c1cnc(NCC2(c3ncccc3F)CCC2)nc1 [N-ethyl[2-({[(3-fluoro(2-pyridyl))cyclobutyl]methyl}amino)pyrimidin-5-yl] carboxamide] | D (D=>20 uM) |
| NC(=O)Cc1cnc(-c2cnc(NCC3(c4ncccc4F)CCC3)nc2)s1 [2-{2-[2-({[(3-fluoro-2-pyridyl)cyclobutyl]methyl}amino)pyrimidin-5-yl]-1,3-thiazol-5-yl}acetamide] | B (B=1-10 uM) |
| CC(C)(CNc1ncc(C(=O)NC2(C(=O)O)CC2)cn1)c1ccc(F)cc1 [1-[(2-{[2-(4-fluorophenyl)-2-methylpropyl]amino}pyrimidin-5-yl)carbonylamino] cyclopropanecarboxylic acid] | D (D=>20 uM) |
| COc1cccnc1C(C)(C)Nc1ncc(-c2cc(C#N)ccc2F)cn1 [4-fluoro-3-(2-{[1-(3-methoxy(2-pyridyl))-isopropyl]amino}pyrimidin-5-yl)benzenecarbonitrile] | D (D=>20 uM) |
| N#Cc1ccnc(-c2cnc(NC[C@]3(c4ncccc4F)C[C@H](F)C3)nc2)c1 [2-[2-({[3-fluoro-1-(3-fluoro(2-pyridyl))cyclobutyl]methyl)amino)pyrimidin-5-yl]pyridine-4-carbonitrile] | B (B=1-10 uM) |
